Measured values taken from patent publication US8748462B2, “Spirocyclic GPR40 modulators” (Amgen Inc., priority 2008, dated 2014).

The compounds below were run against T1, human GPR40 (Homo sapiens, UniProt O14842) (assay: Cell-based aequorin assay). Conditions: CHO cells stably transfected with GPR40 and aequorin; 0.01% HSA.
T1 construct: expressed in transfected cells; host or cells: CHO cells stably transfected with GPR40 and Aequorin
Procedure: Cell-based aequorin assays were employed to characterize the modulatory activity of compounds on the GPR40 signaling pathway. In an exemplary assay, CHO cells were stably transfected with both GPR40 and Aequorin (Euroscreen). Cells were detached from the tissue culture dish with 2 mL of trypsin (0.25% (w/v)). Trypsinization was halted with 28 mL of Hanks Buffered Salt Solution containing 20 mM Hepes (H/HBSS) and 0.01% fatty acid-free human serum albumin (HSA). Coelantrazine is added to 1 ug/mL, and the cells were incubated for 2 hours at room temperature. Compounds were dissolved in DMSO for preparation of 10 mM stock solutions. Compounds were diluted in H/HBSS containing 0.01% HSA. Serial dilutions of the test compounds were prepared to determine dose response.
Aequorin luminescence measurements were made using an EG&G Berthold 96-well luminometer, and the response was measured over a 20 second interval after cells and compounds were mixed. The maximum relative light units was plotted to determine dose response. The EC50 (effective concentration to reach 50% maximal response) was determined from the dose response plot.

T1 sequence (O14842 whole entry): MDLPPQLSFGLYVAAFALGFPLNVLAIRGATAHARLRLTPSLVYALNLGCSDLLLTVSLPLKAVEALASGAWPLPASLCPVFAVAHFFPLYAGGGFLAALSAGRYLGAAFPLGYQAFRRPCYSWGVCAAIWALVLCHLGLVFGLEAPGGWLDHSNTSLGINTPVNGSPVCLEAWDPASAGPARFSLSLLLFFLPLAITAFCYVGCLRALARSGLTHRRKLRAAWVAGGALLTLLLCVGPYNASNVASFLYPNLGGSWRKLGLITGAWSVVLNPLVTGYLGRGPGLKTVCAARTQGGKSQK

Row | EC50 [nM] | Structure (SMILES)
1 | 1000 to 10000 | C=CC(C)(C)[C@@H]1c2cc(COc3ccc4c(c3)[C@]3(CC4)C[C@H]3C(=O)O)ccc2-c2c(F)ccc(OC)c21 (single isomer, unassigned) [Example 23]
2 | 1000 to 10000 | COc1ccc(Cl)c(-c2ccc(COc3ccc4c(c3F)[C@@]3(CC4)C[C@@H]3C(=O)O)cc2[C@@H]2CCCC2(C)C)n1 (stereo in doubt) [Example 126]
3 | 100 to 1000 | C=CC(C)(C)[C@H]1c2cc(COc3ccc4c(c3)[C@]3(CC4)C[C@H]3C(=O)O)ccc2-c2c(F)ccc(OC)c21 (racemic) [Example 21]
4 | 1000 to 10000 | COc1ccc(F)c(-c2ccc(COc3cc(F)c4c(c3F)[C@@]3(CC4)C[C@H]3C(=O)O)cc2[C@@H](OC)C(C)(C)C)c1 (single isomer, unassigned) [Example 40]
5 | 1000 to 10000 | CO[C@@H](c1cc(COc2ccc3c(c2)[C@]2(CCC3)C[C@H]2C(=O)O)ccc1-c1cncc(F)c1)C(C)(C)C (racemic) [Example 138]
6 | 1000 to 10000 | COc1ccc(F)c(-c2ccc(COc3ccc4c(c3)[C@]3(CCC4)CC[C@@H]3C(=O)O)cc2[C@@H](OC)C(C)(C)C)c1 (single isomer, unassigned) [Example 152]
7 | 1000 to 10000 | COCC1(c2cc(COc3ccc4c(c3)[C@]3(CC4)C[C@H]3C(=O)O)ccc2-c2cc(OC)ncc2F)CCCC1 [Example 27]
8 | 1000 to 10000 | COc1ccc(F)c(-c2ccc(COc3cc(F)c4c(c3F)[C@]3(CC4)C[C@@H]3C(=O)O)cc2[C@@H](OC)C(C)(C)C)c1 (single isomer, unassigned) [Example 39]
9 | > 10000 | COc1ccc(F)c(-c2ccc(COc3ccc4c(c3)[C@@]3(CCC4)C[C@@H]3C(=O)O)cc2C2=CCCC2(C)C)c1 [Example 50]
10 | 1000 to 10000 | C=CC1(c2cc(COc3ccc4c(c3)[C@]3(CC4)C[C@H]3C(=O)O)ccc2-c2cc(OC)ncc2F)CCCC1 [Example 26]
11 | 1000 to 10000 | COc1ccc(F)c(-c2ccc(COc3ccc4c(c3)C3(CCC4)CCC3C(=O)O)cc2C(OC)C(C)(C)C)c1 (single isomer, unassigned) [Example 157]
12 | 1000 to 10000 | COc1ccc(F)c(-c2ccc(COc3cc(F)c4c(c3F)[C@@]3(CC4)C[C@@H]3C(=O)O)cc2[C@@H](OC)C(C)(C)C)c1 (single isomer, unassigned) [Example 38]
13 | 1000 to 10000 | COc1ccc(F)c(-c2ccc(COc3cc(F)c4c(c3F)[C@@]3(CC4)C[C@@H]3C(=O)O)cc2[C@H]2CCCC2(C)C)c1 (single isomer, unassigned) [Example 34]
14 | 1000 to 10000 | COc1ccc(F)c(-c2ccc(COc3ccc4c(c3)[C@]3(CC4)CC[C@@H]3C(=O)O)cc2[C@@H](OC)C(C)(C)C)c1 (single isomer, unassigned) [Example 145]
15 | > 10000 | COc1ccc(F)c(-c2ccc(COc3ccc4c(c3)[C@@]3(CC4)C[C@@H]3C(=O)O)cc2C2=CCCC2(C)C)c1 [Example 2]
16 | > 10000 | COc1ccc(F)c(-c2ccc(COc3cc(F)c4c(c3F)[C@@]3(CC4)C[C@H]3C(=O)O)cc2[C@H]2CCCC2(C)C)c1 (single isomer, unassigned) [Example 36]
17 | 10 to 100 | COc1ccc(F)c(-c2ccc(COc3cc(F)c4c(c3F)[C@]3(CC4)C[C@H]3C(=O)O)cc2[C@@H](OC)C(C)(C)C)c1 (single isomer, unassigned) [Example 37]
18 | 10 to 100 | COc1cc(-c2cc(F)c(COc3ccc4c(c3)[C@]3(CCC4)C[C@H]3C(=O)O)cc2[C@H]2CCCC2(C)C)c(F)cn1 (single isomer, unassigned) [Example 43]
19 | 100 to 1000 | COc1ccc(F)c(-c2ccc(COc3ccc4c(c3)[C@]3(CC4)CC[C@@H]3C(=O)O)cc2[C@@H]2CCCC2(C)C)c1 (single isomer, unassigned) [Example 146]
20 | > 10000 | COc1ccc(F)c(-c2ccc(COc3ccc4c(c3)[C@@]3(CC4)C[C@@H]3C(=O)O)cc2[C@H]2CCCC2(C)C)c1 (single isomer, unassigned) [Example 10]
21 | 1000 to 10000 | COc1ccc(F)c(-c2ccc(COc3ccc4c(c3)[C@@]3(CC4)C[C@H]3C(=O)O)cc2C2=CCCC2(C)C)c1 [Example 4]
22 | 100 to 1000 | COc1ccc(F)c(-c2ccc(COc3ccc4c(c3)C3(CC4)CCC3C(=O)O)cc2C(OC)C(C)(C)C)c1 (single isomer, unassigned) [Example 147]
23 | 1000 to 10000 | CO[C@@H](c1cc(COc2ccc3c(c2)[C@]2(CCC3)C[C@H]2C(=O)O)ccc1-c1ccnc(C(F)(F)F)c1)C(C)(C)C (racemic) [Example 136]
24 | 1000 to 10000 | COc1cc(-c2ccc(COc3ccc4c(c3)[C@]3(CCC4)CC[C@@H]3C(=O)O)cc2[C@@H]2CCCC2(C)C)c(F)cn1 (single isomer, unassigned) [Example 153]
25 | 100 to 1000 | COc1ccc(F)c(-c2ccc(COc3ccc4c(c3)[C@@]3(CC4)[C@H](C(=O)O)[C@@H]3C)cc2[C@@H]2CCCC2(C)C)c1 (single isomer, unassigned) [Example 140]
26 | > 10000 | COc1ccc(F)c(-c2ccc(COc3ccc4c(c3)[C@]3(CC4)C[C@H]3C(=O)O)cc2-c2nncn2C(C)C)c1 [Example 29]
27 | 1000 to 10000 | COc1cc(-c2ccc(COc3cc(F)c4c(c3F)[C@]3(CC4)C[C@H]3C(=O)O)cc2[C@@H]2CCCC2(C)C)c(F)cn1 (single isomer, unassigned) [Example 42]

Row | Structure (SMILES) | EC50 [nM]
28 | COc1ccc(F)c(-c2cc(COc3ccc4c(c3)[C@@]3(CC4)C[C@@H]3C(=O)O)ccc2C(C)(C)C)c1 [Example 6] | > 10000
29 | CC1(C)CCC(C)(C)c2cc(COc3ccc4c(c3)[C@]3(CC4)C[C@H]3C(=O)O)ccc21 [Example 104, (1R,2R)-6′-((5,5,8,8-tetramethyl-5,6,7,8-tetrahydro-2-naphthalenyl)methoxy)-2′,3′-dihydrospiro[cyclopropane-1,1′-indene]-2-carboxylic acid] | > 10000
30 | COc1ccc(F)c(-c2cc(COc3ccc4c(c3)[C@]3(CC4)C[C@@H]3C(=O)O)ccc2C(C)(C)C)c1 [Example 7] | > 10000
31 | C=CC(C)(C)c1cc(COc2ccc3c(c2)[C@]2(CC3)C[C@H]2C(=O)O)ccc1-c1cc(OC)ncc1F [Example 123, (1R,2R)-6′-(4-(5-Fluoro-2-methoxypyridin-4-yl)-3-(2-methylbut-3-en-2-yl)benzyloxy)-2′,3′-dihydrospiro[cyclopropane-1,1′-indene]-2-carboxylic acid] | 1000 to 10000
32 | CO[C@@H](c1cc(COc2ccc3c(c2)[C@]2(CCC3)C[C@H]2C(=O)O)ccc1-c1cncs1)C(C)(C)C (racemic) [Example 135] | 1000 to 10000
33 | COc1ccc(F)c(-c2cc(COc3ccc4c(c3)[C@@]3(CC4)C[C@H]3C(=O)O)ccc2C(C)(C)C)c1 [Example 8] | > 10000
34 | COc1ccc(F)c(-c2cc(COc3ccc4c(c3)[C@]3(CC4)C[C@H]3C(=O)O)ccc2C(C)(C)C)c1 [Example 5] | 1000 to 10000
35 | O=C(O)[C@@H]1C[C@]12CCc1ccc(Oc3ccc(C(F)(F)F)c(Br)c3)cc12 [Example 124, (1R,2R)-6′-(3-Bromo-4-(trifluoromethyl)phenoxy)-2′,3′-dihydrospiro[cyclopropane-1,1′-indene]-2-carboxylic acid] | 1000 to 10000
36 | CO[C@@H](c1cc(COc2ccc3c(c2)[C@]2(CCC3)C[C@H]2C(=O)O)ccc1Br)C(C)(C)C (racemic) [Example 132] | 1000 to 10000
